Results from patent US20250026778A1 (TIUMBIO CO., LTD., priority 2021, published 2025).

Each compound was assayed against T1, his-galectin-3 (Homo sapiens, UniProt P17931) (assay: TR-FRET assay (in vitro galectin-3 binding inhibitory activity test)). Details: Table 1; compound at 20 μM; 60 nM his-galectin-3, 15 nM biotin-ASF; read-out: % Inhibitory activity (at 20 μM).
T1 construct: purchased Abcam
Procedure, shortened: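 Compound is premixed with his-galectin-3 (60 nM final), then biotin-ASF (15 nM), Tb anti-His antibody (2 nM) and streptavidin-d2 (20 nM) are added. After at least 3.5 hours at RT in HEPES/NaCl buffer with Tween 20 and BSA, TR-FRET is read at 615/665 nm. DMSO serves as the uninhibited control, ASF omission as background.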

T1 sequence (P17931 whole entry): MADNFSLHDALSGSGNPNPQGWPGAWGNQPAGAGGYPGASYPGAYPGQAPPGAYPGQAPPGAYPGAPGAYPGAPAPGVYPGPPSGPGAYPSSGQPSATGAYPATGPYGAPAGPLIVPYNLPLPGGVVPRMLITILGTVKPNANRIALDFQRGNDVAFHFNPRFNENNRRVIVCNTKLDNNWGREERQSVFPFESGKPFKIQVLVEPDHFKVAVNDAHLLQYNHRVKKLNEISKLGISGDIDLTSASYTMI

Structure (SMILES) | inhibition at 20 µM [%]
O=C(N[C@@H]1CCO[C@]12O[C@H](CO)[C@H](O)[C@H](n1cc(-c3cc(F)c(F)c(F)c3)nn1)[C@H]2O)c1ccccc1-c1ccccc1 [Compound A121, N-((4R,5S,7R,8R,9S,10R)-8,10-dihydroxy-7-(hydroxymethyl)-9-(4-(3,4,5-trifluorophenyl)-1H-1,2,3-triazol-1-yl)-1,6-dioxaspiro[4.5]decan-4-yl)-[1.1′ biphenyl]-2-carboxamide] | 25 to 50
O=C(N[C@@H]1CCO[C@]12O[C@H](CO)[C@H](O)[C@H](n1cc(-c3cc(F)c(F)c(F)c3)nn1)[C@H]2O)c1cccc(OC(F)(F)F)c1 [Compound A122, N-((4R,5S,7R,8R,9S,10R)-8,10-dihydroxy-7-(hydroxymethyl)-9-(4-(3,4,5-trifluorophenyl)-1H-1,2,3-triazol-1-yl)-1,6-dioxaspiro[4.5]decan-4-yl)-3-(trifluoromethoxy)benzamide] | 50 to 75
O=C(N[C@@H]1CCO[C@]12O[C@H](CO)[C@H](O)[C@H](n1cc(-c3cc(F)c(F)c(F)c3)nn1)[C@H]2O)c1cc2ccccc2o1 [Compound A123, N-((4R,5S,7R,8R,9S,10R)-8,10-dihydroxy-7-(hydroxymethyl)-9-(4-(3,4,5-trifluorophenyl)-1H-1,2,3-triazol-1-yl)-1,6-dioxaspiro[4.5]decan-4-yl)benzofuran-2-carboxamide] | 50 to 75
O=C(N[C@@H]1CCO[C@]12O[C@H](CO)[C@H](O)[C@H](n1cc(-c3cc(F)c(F)c(F)c3)nn1)[C@H]2O)c1cc2ccccc2s1 [Compound A124, N-((4R,5S,7R,8R,9S,10R)-8,10-dihydroxy-7-(hydroxymethyl)-9-(4-(3,4,5-trifluorophenyl)-1H-1,2,3-triazol-1-yl)-1,6-dioxaspiro[4.5]decan-4-yl)benzo[b]thiophene-2-carboxamide] | 50 to 75
OC[C@H]1O[C@]2(OCC[C@H]2NCc2ccccc2O)[C@H](O)[C@@H](n2cc(-c3cc(F)c(F)c(F)c3)nn2)[C@H]1O [Compound A125, (4R,5S,7R,8R,9S,10R)-4-((2-hydroxybenzyl)amino)-7-(hydroxymethyl)-9-(4-(3,4,5-trifluorophenyl)-1H-1,2,3-triazol-1-yl)-1,6-dioxaspiro[4.5]decane-8,10-diol] | < 25
OC[C@H]1O[C@]2(OCC[C@H]2NCc2cc(Cl)ccc2O)[C@H](O)[C@@H](n2cc(-c3cc(F)c(F)c(F)c3)nn2)[C@H]1O [Compound A126, (4R,5S,7R,8R,9S,10R)-4-((5-chloro-2-hydroxybenzyl)amino)-7-(hydroxymethyl)-9-(4-(3,4,5-trifluorophenyl)-1H-1,2,3-triazol-1-yl)-1,6-dioxaspiro[4.5]decane-8,10-diol] | 25 to 50
OC[C@H]1O[C@]2(OCC[C@H]2NCc2cccc(Cl)c2O)[C@H](O)[C@@H](n2cc(-c3cc(F)c(F)c(F)c3)nn2)[C@H]1O [Compound A127, (4R,5S,7R,8R,9S,10R)-4-((3-chloro-2-hydroxybenzyl)amino)-7-(hydroxymethyl)-9-(4-(3,4,5-trifluorophenyl)-1H-1,2,3-triazol-1-yl)-1,6-dioxaspiro[4.5]decane-8,10-diol] | 50 to 75

More lines, now with the values ahead:

inhibition at 20 µM [%] | Structure (SMILES)
50 to 75 | OC[C@H]1O[C@]2(OCC[C@H]2NCc2ccc(Cl)o2)[C@H](O)[C@@H](n2cc(-c3cc(F)c(F)c(F)c3)nn2)[C@H]1O [Compound A128, (4R,5S,7R,8R,9S,10R)-4-(((5-chlorofuran-2-yl)methyl)amino)-7-(hydroxymethyl)-9-(4-(3,4,5-trifluorophenyl)-1H-1,2,3-triazol-1-yl)-1,6-dioxaspiro[4.5]decane-8,10-diol]
50 to 75 | O=C(N[C@@H]1CCO[C@]12O[C@H](CO)[C@H](O)[C@H](n1cc(-c3cc(F)c(F)c(F)c3)nn1)[C@H]2O)c1ccc2ccccc2c1 [Compound A129, N-((4R,5S,7R,8R,9S,10R)-8,10-dihydroxy-7-(hydroxymethyl)-9-(4-(3,4,5-trifluorophenyl)-1H-1,2,3-triazol-1-yl)-1,6-dioxaspiro[4.5]decan-4-yl)-2-naphthamide]
50 to 75 | O=C(N[C@@H]1CCO[C@]12O[C@H](CO)[C@H](O)[C@H](n1cc(-c3cc(F)c(F)c(F)c3)nn1)[C@H]2O)c1cccc(Oc2ccccc2)c1 [Compound A130, N-((4R,5S,7R,8R,9S,10R)-8,10-dihydroxy-7-(hydroxymethyl)-9-(4-(3,4,5-trifluorophenyl)-1H-1,2,3-triazol-1-yl)-1,6-dioxaspiro[4.5]decan-4-yl)-3-phenoxybenzamide]
< 25 | O=C(N[C@@H]1CCO[C@]12O[C@H](CO)[C@H](O)[C@H](n1cc(-c3cc(F)c(F)c(F)c3)nn1)[C@H]2O)c1ccc(-c2ccccc2)cc1 [Compound A131, N-((4R,5S,7R,8R,9S,10R)-8,10-dihydroxy-7-(hydroxymethyl)-9-(4-(3,4,5-trifluorophenyl)-1H-1,2,3-triazol-1-yl)-1,6-dioxaspiro[4.5]decan-4-yl)-[1.1′ biphenyl]-4-carboxamide]
25 to 50 | COc1cccc(CN[C@@H]2CCO[C@]23O[C@H](CO)[C@H](O)[C@H](n2cc(-c4cc(F)c(F)c(F)c4)nn2)[C@H]3O)c1O [Compound A132, (4R,5S,7R,8R,9S,10R)-4-((2,3-hydroxy-3-methoxybenzyl)amino)-7-(hydroxymethyl)-9-(4-(3,4,5-trifluorophenyl)-1H-1,2,3-triazol-1-yl)-1,6-dioxaspiro[4.5]decane-8,10-diol]
> 75 | O=C(N[C@@H]1CCO[C@]12O[C@H](CO)[C@H](O)[C@H](n1cc(-c3cc(F)c(F)c(F)c3)nn1)[C@H]2O)c1cccc2ccccc12 [Compound A133, N-((4R,5S,7R,8R,9S,10R)-8,10-dihydroxy-7-(hydroxymethyl)-9-(4-(3,4,5-trifluorophenyl)-1H-1,2,3-triazol-1-yl)-1,6-dioxaspiro[4.5]decan-4-yl)-1-naphthamide]
> 75 | O=C(N[C@@H]1CCO[C@]12O[C@H](CO)[C@H](O)[C@H](n1cc(-c3cc(F)c(F)c(F)c3)nn1)[C@H]2O)c1cccc(-c2ccccc2)c1 [Compound A134, N-((4R,5S,7R,8R,9S,10R)-8,10-dihydroxy-7-(hydroxymethyl)-9-(4-(3,4,5-trifluorophenyl)-1H-1,2,3-triazol-1-yl)-1,6-dioxaspiro[4.5]decan-4-yl)-[1.1′ biphenyl]-3-carboxamide]
< 25 | O=C(Cc1ccc(-c2ccccc2)cc1)N[C@@H]1CCO[C@]12O[C@H](CO)[C@H](O)[C@H](n1cc(-c3cc(F)c(F)c(F)c3)nn1)[C@H]2O [Compound A135, 2-([1,1′-biphenyl]-4-yl)-N-((4R,5S,7R,8R,9S,10R)-8,10-dihydroxy-7-(hydroxymethyl)-9-(4-(3,4,5-trifluorophenyl)-1H-1,2,3-triazol-1-yl)-1,6-dioxaspiro[4.5]decan-4-yl)acetamide]
> 75 | O=C(Cc1cccc(C(F)(F)F)c1)N[C@@H]1CCO[C@]12O[C@H](CO)[C@H](O)[C@H](n1cc(-c3cc(F)c(F)c(F)c3)nn1)[C@H]2O [Compound A136, N-((4R,5S,7R,8R,9S,10R)-8,10-dihydroxy-7-(hydroxymethyl)-9-(4-(3,4,5-trifluorophenyl)-1H-1,2,3-triazol-1-yl)-1,6-dioxaspiro[4.5]decan-4-yl)-2-(3-(trifluoromethyl)phenyl)acetamide]
50 to 75 | CC(C(=O)N[C@@H]1CCO[C@]12O[C@H](CO)[C@H](O)[C@H](n1cc(-c3cc(F)c(F)c(F)c3)nn1)[C@H]2O)c1ccccc1 (stereo partly drawn) [Compound A137, N-((4R,5S,7R,8R,9S,10R)-8,10-dihydroxy-7-(hydroxymethyl)-9-(4-(3,4,5-trifluorophenyl)-1H-1,2,3-triazol-1-yl)-1,6-dioxaspiro[4.5]decan-4-yl)-2-phenylpropanamide]
< 25 | O=C(c1ccccc1)N1CCC[C@]2(C1)O[C@H](CO)[C@H](O)[C@H](n1cc(-c3cc(F)c(F)c(F)c3)nn1)[C@H]2O [Compound A138, ((2R,3R,4S,5R,6R)-3,5-dihydroxy-2-(hydroxymethyl)-4-(4-(3,4,5-trifluorophenyl)-1H-1,2,3-triazol-1-yl)-1-oxa-8-azaspiro[5.5]undecan-8-yl)(phenyl)methanone]
< 25 | COc1cccc(CC(=O)N2CCC[C@]3(C2)O[C@H](CO)[C@H](O)[C@H](n2cc(-c4cc(F)c(F)c(F)c4)nn2)[C@H]3O)c1 [Compound A140, 1-((2R,3R,4S,5R,6R)-3,5-dihydroxy-2-(hydroxymethyl)-4-(4-(3,4,5-trifluorophenyl)-1H-1,2,3-triazol-1-yl)-1-oxa-8-azaspiro[5.5]undecan-8-yl)-2-(3-methoxyphenyl)ethanone]

Same assay, conditions: Table 3, found values; compound at 20 μM; 60 nM his-galectin-3, 15 nM biotin-ASF; read-out: % Inhibitory activity (at 20 μM)

inhibition at 20 µM [%] | Structure (SMILES)
56.6 | O=C(N[C@@H]1CCO[C@]12O[C@H](CO)[C@H](O)[C@H](n1cc(-c3cc(F)c(F)c(F)c3)nn1)[C@H]2O)c1cccc(Oc2ccccc2)c1 [Compound A130, N-((4R,5S,7R,8R,9S,10R)-8,10-dihydroxy-7-(hydroxymethyl)-9-(4-(3,4,5-trifluorophenyl)-1H-1,2,3-triazol-1-yl)-1,6-dioxaspiro[4.5]decan-4-yl)-3-phenoxybenzamide]

Same assay, conditions: read-out: % Inhibitory activity (at 20 μM), Table 1; compound at 20 μM; 60 nM his-galectin-3, 15 nM biotin-ASF

Structure (SMILES) | inhibition at 20 µM [%]
O=C(Cc1cccc(Cl)c1)N1CCC[C@]2(C1)O[C@H](CO)[C@H](O)[C@H](n1cc(-c3cc(F)c(F)c(F)c3)nn1)[C@H]2O [Compound A139, 2-(3-chlorophenyl)-1-((2R,3R,4S,5R,6R)-3,5-dihydroxy-2-(hydroxymethyl)-4-(4-(3,4,5-trifluorophenyl)-1H-1,2,3-triazol-1-yl)-1-oxa-8-azaspiro[5.5]undecan-8-yl)ethanone] | < 25
OC[C@H]1O[C@@]2(CCCN(Cc3ccccc3)C2)[C@H](O)[C@@H](n2cc(-c3cc(F)c(F)c(F)c3)nn2)[C@H]1O [Compound A141, (2R,3R,4S,5R,6R)-8-benzyl-2-(hydroxymethyl)-4-(4-(3,4,5-trifluorophenyl)-1H-1,2,3-triazol-1-yl)-1-oxa-8-azaspiro[5.5]undecane-3,5-diol] | < 25
OC[C@H]1O[C@@]2(CCCN(Cc3cccnc3)C2)[C@H](O)[C@@H](n2cc(-c3cc(F)c(F)c(F)c3)nn2)[C@H]1O [Compound A142, (2R,3R,4S,5R,6R)-2-(hydroxymethyl)-8-(pyridin-3-ylmethyl)-4-(4-(3,4,5-trifluorophenyl)-1H-1,2,3-triazol-1-yl)-1-oxa-8-azaspiro[5.5]undecane-3,5-diol] | < 25
